{
  "source": "the NIST ThermoML archive (doi:10.1021/je700725j)",
  "conditions": "Liquid",
  "note": "Numbers after ± are expanded uncertainties.",
  "data": [
    {"smiles": "CC(F)(F)F", "note": "[1,1,1-trifluoroethane]", "values": [
      {"measurement": "vapor or sublimation pressure", "setting": "273.15 K", "result": "620 ± 4", "unit": "kPa"},
      {"measurement": "vapor or sublimation pressure", "setting": "283.15 K", "result": "837 ± 5", "unit": "kPa"},
      {"measurement": "vapor or sublimation pressure", "setting": "293.15 K", "result": "1104 ± 7", "unit": "kPa"},
      {"measurement": "vapor or sublimation pressure", "setting": "303.15 K", "result": "1432 ± 9", "unit": "kPa"},
      {"measurement": "vapor or sublimation pressure", "setting": "313.15 K", "result": "1830 ± 11", "unit": "kPa"},
      {"measurement": "vapor or sublimation pressure", "setting": "323.15 K", "result": "2298 ± 14", "unit": "kPa"}
    ]},
    {"smiles": "CCCC", "note": "[butane]", "values": [
      {"measurement": "vapor or sublimation pressure", "setting": "273.15 K", "result": "104 ± 2", "unit": "kPa"},
      {"measurement": "vapor or sublimation pressure", "setting": "283.15 K", "result": "150 ± 2", "unit": "kPa"},
      {"measurement": "vapor or sublimation pressure", "setting": "293.15 K", "result": "208 ± 2", "unit": "kPa"},
      {"measurement": "vapor or sublimation pressure", "setting": "303.15 K", "result": "284 ± 3", "unit": "kPa"},
      {"measurement": "vapor or sublimation pressure", "setting": "313.15 K", "result": "378 ± 3", "unit": "kPa"},
      {"measurement": "vapor or sublimation pressure", "setting": "323.15 K", "result": "494 ± 4", "unit": "kPa"}
    ]}
  ]
}
